Results from ChEMBL document CHEMBL2424546, “Synthesis, transformation and biological evaluation of 2,3-secotriterpene acetylhydrazones and their derivatives” (Eur J Med Chem, 2013).

Tested on: not listed separately
Assay: Therapeutic index, ratio of IC50 for pig PEK cells to EC50 for vesicular stomatitis virus Indiana infected in pig PEK cells
Assay type: cell-based
Conditions: read-out: Ratio IC50/EC50; call rule not given here

Row | SMILES | selectivity ratio
1 | C=C(C)[C@@H]1CC[C@]2(C(=O)OC)CC[C@]3(C)[C@H](CC[C@@H]4[C@@](C)(CC#N)[C@H](C(C)(C)/C=N/NC(C)=O)CC[C@]43C)[C@@H]12 | 37

Tested on: RD
Assay: Induction of apoptosis in human RD cells assessed as early apoptotic cells at 4.5 uM after 6 hrs by annexinV-FITC/propidium iodide staining-based flow cytometry (reference value: 1.21%)
Assay type: cell-based
Conditions: not given

Row | SMILES | Activity [%]
2 | CC[C@@]1(O)C(=O)OCc2c1cc1n(c2=O)Cc2cc3ccccc3nc2-1 [CAMPTOTHECIN] | 4.08

Tested on: Vesicular stomatitis Indiana virus
Assay: Antiviral activity against vesicular stomatitis virus Indiana infected in pig PEK cells assessed as inhibition of virus replication after 48 hrs by MTT assay
Assay type: functional, organism-based
Conditions: Vesicular stomatitis Indiana virus, PEK, 48 h; read-out: EC50

Row | SMILES | EC50 [µM]
3 | C=C(C)[C@@H]1CC[C@]2(C(=O)OC)CC[C@]3(C)[C@H](CC[C@@H]4[C@@](C)(CC#N)[C@H](C(C)(C)/C=N/NC(C)=O)CC[C@]43C)[C@@H]12 | 1.58

Same assay, conditions: pek

Row | SMILES | EC50
4 | CC(=O)N1N=C(C)O[C@H]1C(C)(C)[C@@H]1CC[C@]2(C)[C@H](CC[C@@H]3[C@H]4[C@H]5OC[C@@]4(CCC5(C)C)CC[C@]32C)[C@@]1(C)CC#N | Not Active
5 | C=C(C)[C@@H]1CC[C@]2(C(=O)NCCC(=O)OCC)CC[C@]3(C)[C@H](CC[C@@H]4[C@@](C)(CC#N)[C@H](C(C)(C)/C=N/NC(C)=O)CC[C@]43C)[C@@H]12 | Not Active
6 | C=C(C)[C@@H]1CC[C@]2(C(=O)NC(C)C)CC[C@]3(C)[C@H](CC[C@@H]4[C@@](C)(CC#N)[C@H](C(C)(C)/C=N/NC(C)=O)CC[C@]43C)[C@@H]12 | Not Active
7 | CC(=O)N1N=C(C)O[C@@H]1C(C)(C)[C@@H]1CC[C@]2(C)[C@H](CC[C@@H]3[C@H]4[C@H]5OC[C@@]4(CCC5(C)C)CC[C@]32C)[C@@]1(C)CC#N | Not Active

Tested on: RD
Assay: Induction of apoptosis in human RD cells assessed as late apoptotic/necrotic cells at 4.5 uM after 6 hrs by annexinV-FITC/propidium iodide staining-based flow cytometry (reference value: 1.20%)
Assay type: cell-based
Conditions: not given

Row | SMILES | Activity [%]
8 | CC[C@@]1(O)C(=O)OCc2c1cc1n(c2=O)Cc2cc3ccccc3nc2-1 [CAMPTOTHECIN] | 3.1

Tested on: not listed separately
Assay: Cytotoxicity against human TE-32 cells after 72 hrs ny MTT assay
Assay type: cell-based
Conditions: RD

Row | SMILES | IC50 [µM]
9 | CC(=O)N1N=C(C)O[C@H]1C(C)(C)[C@@H]1CC[C@]2(C)[C@H](CC[C@@H]3[C@H]4[C@H]5OC[C@@]4(CCC5(C)C)CC[C@]32C)[C@@]1(C)CC#N | 85
10 | CC[C@@]1(O)C(=O)OCc2c1cc1n(c2=O)Cc2cc3ccccc3nc2-1 [CAMPTOTHECIN] | 4.47
11 | COC(=O)[C@@]1(C)CC[C@]2(C)CC[C@]3(C)C(=CC(=O)[C@@H]4[C@@](C)(CC#N)[C@H](C(C)(C)[C@@H]5OC(C)=NN5C(C)=O)CC[C@]43C)[C@@H]2C1 | > 200
12 | CC(=O)N1N=C(C)O[C@@H]1C(C)(C)[C@@H]1CC[C@]2(C)[C@H](CC[C@@H]3[C@H]4[C@H]5OC[C@@]4(CCC5(C)C)CC[C@]32C)[C@@]1(C)CC#N | 82.2
13 | COC(=O)[C@@]1(C)CC[C@]2(C)CC[C@]3(C)C(=CC(=O)[C@@H]4[C@@](C)(CC#N)[C@H](C(C)(C)[C@H]5OC(C)=NN5C(C)=O)CC[C@]43C)[C@@H]2C1 | 166

Tested on: not listed separately
Assay: Induction of apoptosis in human RD cells assessed as viable cells at 4.5 uM after 6 hrs by annexinV-FITC/propidium iodide staining-based flow cytometry (reference value: 96.85%)
Assay type: cell-based
Conditions: read-out: Activity

Row | SMILES | viability at 6 h, 4.5 µM [%]
14 | CC[C@@]1(O)C(=O)OCc2c1cc1n(c2=O)Cc2cc3ccccc3nc2-1 [CAMPTOTHECIN] | 92.2

Tested on: not listed separately
Assay: Cytotoxicity against human MS cells after 72 hrs ny MTT assay
Assay type: cell-based
Conditions: not given

Row | SMILES | IC50 [µM]
15 | CC(=O)N1N=C(C)O[C@H]1C(C)(C)[C@@H]1CC[C@]2(C)[C@H](CC[C@@H]3[C@H]4[C@H]5OC[C@@]4(CCC5(C)C)CC[C@]32C)[C@@]1(C)CC#N | 40.3
16 | CC[C@@]1(O)C(=O)OCc2c1cc1n(c2=O)Cc2cc3ccccc3nc2-1 [CAMPTOTHECIN] | 0.23
17 | COC(=O)[C@@]1(C)CC[C@]2(C)CC[C@]3(C)C(=CC(=O)[C@@H]4[C@@](C)(CC#N)[C@H](C(C)(C)[C@@H]5OC(C)=NN5C(C)=O)CC[C@]43C)[C@@H]2C1 | 71.2
18 | CC(=O)N1N=C(C)O[C@@H]1C(C)(C)[C@@H]1CC[C@]2(C)[C@H](CC[C@@H]3[C@H]4[C@H]5OC[C@@]4(CCC5(C)C)CC[C@]32C)[C@@]1(C)CC#N | 11.5
19 | COC(=O)[C@@]1(C)CC[C@]2(C)CC[C@]3(C)C(=CC(=O)[C@@H]4[C@@](C)(CC#N)[C@H](C(C)(C)[C@H]5OC(C)=NN5C(C)=O)CC[C@]43C)[C@@H]2C1 | 88.7

Tested on: RD
Assay: Induction of apoptosis in human RD cells assessed as damaged cells at 4.5 uM after 6 hrs by annexinV-FITC/propidium iodide staining-based flow cytometry (reference value: 0.84%)
Assay type: cell-based
Conditions: not given

Row | SMILES | Activity [%]
20 | CC[C@@]1(O)C(=O)OCc2c1cc1n(c2=O)Cc2cc3ccccc3nc2-1 [CAMPTOTHECIN] | 0.67

Tested on: A549
Assay: Cytotoxicity against human A549 cells after 72 hrs ny MTT assay
Assay type: cell-based
Conditions: A549, 72 h

Row | SMILES | IC50 [µM]
21 | CC(=O)N1N=C(C)O[C@H]1C(C)(C)[C@@H]1CC[C@]2(C)[C@H](CC[C@@H]3[C@H]4[C@H]5OC[C@@]4(CCC5(C)C)CC[C@]32C)[C@@]1(C)CC#N | 95.5
22 | CC[C@@]1(O)C(=O)OCc2c1cc1n(c2=O)Cc2cc3ccccc3nc2-1 [CAMPTOTHECIN] | 37.1
23 | COC(=O)[C@@]1(C)CC[C@]2(C)CC[C@]3(C)C(=CC(=O)[C@@H]4[C@@](C)(CC#N)[C@H](C(C)(C)[C@@H]5OC(C)=NN5C(C)=O)CC[C@]43C)[C@@H]2C1 | > 200
24 | CC(=O)N1N=C(C)O[C@@H]1C(C)(C)[C@@H]1CC[C@]2(C)[C@H](CC[C@@H]3[C@H]4[C@H]5OC[C@@]4(CCC5(C)C)CC[C@]32C)[C@@]1(C)CC#N | 147
25 | COC(=O)[C@@]1(C)CC[C@]2(C)CC[C@]3(C)C(=CC(=O)[C@@H]4[C@@](C)(CC#N)[C@H](C(C)(C)[C@H]5OC(C)=NN5C(C)=O)CC[C@]43C)[C@@H]2C1 | 133
